Experimental data reported in patent US7022875B2, “Thiobutacin and antifungal and antioomycete composition for controlling plant diseases using the same” (Korea University Industry and Academy Cooperation Foundation, priority 2003, dated 2006).
Values after ≈ are worked out from the molar mass of the structure shown.

Key:
[1] = system: Phytophthora capsici infection on pepper plants; experiment: Control efficacy against Phytophthora blight on pepper plants in a growth room; assay type: in vivo
Description: The commercial fungicide metalaxyl was used to compare the antifungal activity with thiobutacin against Phytophthora capsici infection on pepper plants in a growth room. Before the pepper plant was inoculated with Phytophthora capsici infection, disease severity was determined both for each treated with various concentrations of thiobutacin and metalaxyl and for the untreated control. Disease severity on pepper plants was rated daily after inoculation based on a scale 0-5: 0=no visible disease symptoms; 1=leaves slightly wilted with brownish lesions beginning to appear on stems; 2=30-50% of entire plant diseased; 3=50-70% of entire plant diseased; 4=70-90% of entire plant diseased; and 5=plant dead.

[2] = system: Colletotrichum orbiculare; experiment: MIC in microtiter plates; assay type: cell-based
Phytophthora capsici = experiment: microbe, parasite or virus in culture; assay type: cell-based; settings: 96 h, 28° C., 4 days
Cladosporium cucumerinum = experiment: MIC in microtiter plates; assay type: cell-based; settings: 96 h, 28° C., 4 days, complete inhibition of growth
Rhizoctonia solani = experiment: MIC in microtiter plates; assay type: cell-based
[3] = system: Erwinia carotovora subsp. carotovora; experiment: microbe, parasite or virus in culture; assay type: cell-based; settings: Pectobacterium carotovorum, 96 h; 28° C., 4 days
Ralstonia solanacearum = experiment: microbe, parasite or virus in culture; assay type: cell-based; settings: 96 h
[4] = system: Fusarium oxysporum f.sp. cucumerinum; experiment: MIC in microtiter plates; assay type: cell-based
Candida albicans = experiment: microbe, parasite or virus in culture; assay type: cell-based; settings: 96 h, 28° C., 4 days
Magnaporthe grisea = experiment: microbe, parasite or virus in culture; assay type: cell-based
[5] = system: Xanthomonas campestris pv. Vesicatoria; experiment: microbe, parasite or virus in culture; assay type: cell-based; settings: 96 h, 28° C., 4 days
Botrytis cinerea = experiment: MIC in microtiter plates; assay type: cell-based; settings: 96 h, 28° C., 4 days, complete inhibition of growth
Bacillus subtilis = experiment: microbe, parasite or virus in culture; assay type: cell-based; settings: 96 h, 28° C., 4 days
Saccharomyces cerevisiae = experiment: microbe, parasite or virus in culture; assay type: cell-based; settings: 96 h, 28° C., 4 days
Alternaria mali = experiment: MIC in microtiter plates; assay type: cell-based
[6] = from 4 days after inoculation, treated plants
[7] = from 5 days after inoculation, 10 μg/ml
[8] = 96 h, 28° C., 4 days, complete inhibition of growth

## COCC(=O)N(c1c(C)cccc1C)C(C)C(=O)OC (stereo not drawn) [metalaxyl, reference compound]
[1]; [6]
  disease symptoms on pepper plants: did not exhibit any symptoms
[1]; [7]
  disease symptoms on pepper plants: slight disease symptoms
[1]; from 5 days after inoculation, 50 μg/ml
  disease symptoms on pepper plants: exhibited the disease development in the leaves
[1]; higher concentrations than 100 μg/ml
  disease symptoms on pepper plants: did not show any phytophthora development

## CSC(CC(=O)c1ccccc1N)C(=O)O (stereo not drawn) [thiobutacin, 4-(2-aminophenyl)-4-oxo-2-methylthio-butanoic acid]
[2]
  growth inhibition (in words): not inhibited
[2]; [8]
  MIC: > 100 µg/mL
Phytophthora capsici
  MIC: 10 µg/mL (≈ 41.8 µM)
Cladosporium cucumerinum
  MIC: 50 µg/mL (≈ 209 µM)
Rhizoctonia solani
  growth inhibition (in words): not inhibited
Rhizoctonia solani; [8]
  MIC: > 100 µg/mL
[3]
  MIC: > 100 µg/mL
Ralstonia solanacearum
  MIC: > 100 µg/mL
[4]; 96 h, Fusarium oxysporum f.sp. cucumerinum, 28° C., 4 days, complete inhibition of growth
  MIC: > 100 µg/mL
[4]; Fusarium oxysporum f. sp. cucumerinum
  growth inhibition (in words): not inhibited
Candida albicans
  MIC: > 100 µg/mL
Magnaporthe grisea; Magnaporthe grisea
  growth inhibition (in words): not inhibited
Magnaporthe grisea; Pyricularia oryzae, 96 h
  MIC: > 100 µg/mL
[5]
  MIC: > 100 µg/mL
Botrytis cinerea
  MIC: 50 µg/mL (≈ 209 µM)
Bacillus subtilis
  MIC: > 100 µg/mL
[1]; after 10 days, 100 μg/ml
  disease symptoms on pepper plants: slight damages
[1]; after 10 days, 500 μg/ml
  disease symptoms on pepper plants: did not show any phytophthora infection
[1]; [6]
  disease symptoms on pepper plants: did not exhibit any symptoms
[1]; [7]
  disease symptoms on pepper plants: exhibited the disease development in the leaves
Saccharomyces cerevisiae
  MIC: 30 µg/mL (≈ 125 µM)
Alternaria mali
  growth inhibition (in words): not inhibited
Alternaria mali; [8]
  MIC: > 100 µg/mL
